Source: ChEMBL document CHEMBL3217581, “Synthesis and selective inhibition of human monoamine oxidases of a large scaffold of (4,5-substituted-thiazol-2-yl)hydrazones” (Medchemcomm, 2010)

What was measured:
[1] = target: T1, Amine oxidase [flavin-containing] B (Homo sapiens, UniProt P27338); assay: biochemical; format: cell-based, BTI-TN-5B1-4
T1 sequence (P27338 whole entry): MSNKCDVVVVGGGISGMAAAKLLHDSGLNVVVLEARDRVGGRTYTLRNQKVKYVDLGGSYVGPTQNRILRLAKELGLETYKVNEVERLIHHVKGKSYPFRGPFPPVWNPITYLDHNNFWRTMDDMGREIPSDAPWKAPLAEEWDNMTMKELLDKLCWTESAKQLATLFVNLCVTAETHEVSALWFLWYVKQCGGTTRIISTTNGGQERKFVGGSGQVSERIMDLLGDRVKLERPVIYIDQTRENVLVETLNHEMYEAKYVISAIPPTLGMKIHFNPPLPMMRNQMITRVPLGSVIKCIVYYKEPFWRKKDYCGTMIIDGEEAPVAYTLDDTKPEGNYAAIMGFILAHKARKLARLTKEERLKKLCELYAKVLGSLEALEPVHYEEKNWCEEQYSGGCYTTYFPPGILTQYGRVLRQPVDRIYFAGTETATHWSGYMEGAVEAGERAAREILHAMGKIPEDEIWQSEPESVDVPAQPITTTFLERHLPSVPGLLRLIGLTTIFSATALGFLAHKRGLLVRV
Description: Inhibition of human MAO-B expressed in baculovirus infected BTI-TN-5B1-4 insect cells using p-tyramine as substrate assessed as hydrogen peroxide production by fluorimetric method

Homo sapiens = organism: Homo sapiens; assay: Selectivity index, ratio of IC50 for human MAO-B to IC50 for human MAO-A
[2] = target: T2, Amine oxidase [flavin-containing] A (Homo sapiens, UniProt P21397); assay: Inhibition of human MAO-A expressed in baculovirus infected BTI-TN-5B1-4 insect cells using p-tyramine as substrate assessed as hydrogen peroxide production by fluorimetric method
T2 sequence (P21397 whole entry): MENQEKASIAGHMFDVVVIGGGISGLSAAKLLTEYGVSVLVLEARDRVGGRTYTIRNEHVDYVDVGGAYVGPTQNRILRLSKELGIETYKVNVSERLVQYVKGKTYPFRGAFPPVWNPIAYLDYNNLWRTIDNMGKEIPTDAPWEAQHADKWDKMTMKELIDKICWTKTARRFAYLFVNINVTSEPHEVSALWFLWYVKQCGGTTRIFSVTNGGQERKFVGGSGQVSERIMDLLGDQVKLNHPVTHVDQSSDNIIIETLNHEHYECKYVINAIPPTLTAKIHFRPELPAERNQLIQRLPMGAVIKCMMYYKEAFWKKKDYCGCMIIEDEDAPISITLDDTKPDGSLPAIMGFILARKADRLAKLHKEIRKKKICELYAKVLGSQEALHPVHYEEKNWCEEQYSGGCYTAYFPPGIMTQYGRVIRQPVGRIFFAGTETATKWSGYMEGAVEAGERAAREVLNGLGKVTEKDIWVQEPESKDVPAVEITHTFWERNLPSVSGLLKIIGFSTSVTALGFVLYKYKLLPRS

[3] = target: T1, Amine oxidase [flavin-containing] B; assay: Inhibition of human MAO-B expressed in baculovirus infected BTI-TN-5B1-4 insect cells using p-tyramine as substrate assessed as hydrogen peroxide production at 100 uM by fluorimetric method; settings: BTI-TN-5B1-4, human
[4] = target: T2, Amine oxidase [flavin-containing] A; assay: Inhibition of human MAO-A expressed in baculovirus infected BTI-TN-5B1-4 insect cells using p-tyramine as substrate assessed as hydrogen peroxide production at 100 uM by fluorimetric method; settings: BTI-TN-5B1-4, human
[5] = target: T1, Amine oxidase [flavin-containing] B; assay: Inhibition of human MAO-B expressed in baculovirus infected BTI-TN-5B1-4 insect cells using p-tyramine as substrate assessed as hydrogen peroxide production at 1 mM by fluorimetric method; settings: bti-tn-5b1-4, 1000 µM

| IC50 [1] [µM] | Ratio IC50 (Homo sapiens) | IC50 [2] [µM] | inhibition at 100 µM [3] [%] | inhibition at 100 µM [4] [%] | inhibition (INH) [5] | IC50 ([1]; bti-tn-5b1-4) [µM] | IC50 ([2]; bti-tn-5b1-4) [µM] | Structure (SMILES) |
| --- | --- | --- | --- | --- | --- | --- | --- | --- |
| 0.88 | 0.37 | 2.39 | – | – | – | – | – | C/C(=N\Nc1nc(-c2ccccc2)c(C)s1)c1ccccn1 |
| 6.23 | 3.13 | 2 | – | – | – | – | – | C/C(=N\Nc1nc(-c2ccc3ccccc3c2)cs1)c1ccccc1 |
| – | > 14.3 | 6.95 | 40 | – | – | – | – | C/C(=N\Nc1nc(-c2ccc3ccccc3c2)cs1)C1CCCCC1 |
| 2.88 | 1.11 | 2.6 | – | – | – | – | – | CC1CCC/C1=N\Nc1nc(-c2ccc3ccccc3c2)cs1 (configuration not stated) |
| 7.48 | 0.83 | 8.67 | – | – | – | – | – | C(=N\Nc1nc(-c2ccc3ccccc3c2)cs1)/c1ccncc1 |
| 4.76 | 1.85 | 2.57 | – | – | – | – | – | C(=N\Nc1nc(-c2ccc3ccccc3c2)cs1)/c1cccnc1 |
| 2.29 | 1.3 | 1.77 | – | – | – | – | – | C/C(=N\Nc1nc(-c2ccc3ccccc3c2)cs1)c1ccco1 |
| 10.8 | 5.56 | 1.94 | – | – | – | – | – | CC1CCC/C(=N\Nc2nc(-c3ccc4ccccc4c3)cs2)C1 (configuration not stated) |
| – | – | – | 40 | 40 | – | – | – | Cc1sc(N/N=C/c2cccc3ccccc23)nc1-c1ccccc1 |
| 2.31 | 0.32 | 7.07 | – | – | – | – | – | Cc1sc(NN=C2CCCCCCC2)nc1-c1ccccc1 |
| – | – | – | – | – | Not Active | – | – | O=C(NCCN1CCOCC1)c1ccc(Cl)cc1 [MOCLOBEMIDE] |
| 6.57 | 0.76 | 8.63 | – | – | – | – | – | Cc1sc(N/N=C/c2ccc3c(c2)OCO3)nc1-c1ccccc1 |
| – | 0.66 | – | – | – | – | 2.52 | 3.9 | Cc1sc(NN=C2CCC(C)CC2)nc1-c1ccccc1 (configuration not stated) |
| 2.45 | 1.49 | 1.65 | – | – | – | – | – | CCC(CC)=NNc1nc(-c2ccccc2)c(C)s1 |
| 3.11 | 1.72 | 1.81 | – | – | – | – | – | CCC/C(C)=N\Nc1nc(-c2ccc3ccccc3c2)cs1 |
| 4.78 | 1.16 | 4.13 | – | – | – | – | – | CCCC/C(CC)=N\Nc1nc(-c2ccccc2)c(C)s1 |
| 2.22 | 1.22 | 1.83 | – | – | – | – | – | Cc1sc(N/N=C/c2cccnc2)nc1-c1ccccc1 |
| 2.65 | 1.52 | 1.74 | – | – | – | – | – | CC/C(C)=N\Nc1nc(-c2ccc3ccccc3c2)cs1 |
| 6.14 | 0.83 | 7.65 | – | – | – | – | – | C/C(=N\Nc1nc(-c2ccccc2)c(C)s1)C1CCCCC1 |
| 2.88 | 0.76 | 3.63 | – | – | – | – | – | Cc1sc(N/N=C2\CCCC(C)C2)nc1-c1ccccc1 (configuration not stated) |
| 1.11 | 0.34 | 3.23 | – | – | – | – | – | Cc1sc(N/N=C2\CCCCC2C)nc1-c1ccccc1 (configuration not stated) |
| 4.63 | 1.72 | 2.71 | – | – | – | – | – | C(=N\Nc1nc(-c2ccc3ccccc3c2)cs1)/c1cccs1 |
| 1.41 | 2.56 | 0.55 | – | – | – | – | – | Cc1sc(NN=C2CCCC2)nc1-c1ccccc1 |
| 2.32 | 1.25 | 1.86 | – | – | – | – | – | CCC(CC)=NNc1nc(-c2ccc3ccccc3c2)cs1 |
| 2.23 | 1 | 2.24 | – | – | – | – | – | C/C(=N\Nc1nc(-c2ccccc2)c(C)s1)c1ccccc1 |
| 3.94 | 2.86 | 1.37 | – | – | – | – | – | C=CCC/C(C)=N\Nc1nc(-c2ccc3ccccc3c2)cs1 |
| – | > 6.25 | 15.8 | 40 | – | – | – | – | CCCCCC/C(C)=N\Nc1nc(-c2ccc3ccccc3c2)cs1 |

The next lines start with the compound.

| Structure (SMILES) | IC50 [1] [µM] | Ratio IC50 (Homo sapiens) | IC50 [2] [µM] | inhibition at 100 µM [3] [%] | inhibition at 100 µM [4] [%] | inhibition (INH) [5] | IC50 ([1]; bti-tn-5b1-4) [µM] | IC50 ([2]; bti-tn-5b1-4) [µM] |
| --- | --- | --- | --- | --- | --- | --- | --- | --- |
| C/C(CC(C)C)=N/Nc1nc(-c2ccccc2)c(C)s1 | 2.78 | 1.16 | 2.4 | – | – | – | – | – |
| Cc1sc(NN=C2CCCCC2)nc1-c1ccccc1 | 1.79 | 1.01 | 1.78 | – | – | – | – | – |
| C/C(CC(C)C)=N/Nc1nc(-c2ccc3ccccc3c2)cs1 | 3.56 | 1.54 | 2.31 | – | – | – | – | – |
| C(=N\Nc1nc(-c2ccc3ccccc3c2)cs1)/c1ccco1 | 2.76 | 1.35 | 2.04 | – | – | – | – | – |
| C=CCC/C(C)=N\Nc1nc(-c2ccccc2)c(C)s1 | 8.85 | 1.27 | 6.97 | – | – | – | – | – |
| C/C(=N\Nc1nc(-c2ccc3ccccc3c2)cs1)c1ccc2ccccc2c1 | – | – | – | 40 | 40 | – | – | – |
| CCC/C(C)=N\Nc1nc(-c2ccccc2)c(C)s1 | 2.31 | 0.9 | 2.52 | – | – | – | – | – |
| C(=N\Nc1nc(-c2ccc3ccccc3c2)cs1)/c1ccc2c(c1)OCO2 | – | > 16.7 | 5.92 | 40 | – | – | – | – |
| CC1CC/C(=N\Nc2nc(-c3ccc4ccccc4c3)cs2)C1 (configuration not stated) | 3.49 | 1.82 | 1.91 | – | – | – | – | – |
| CC(C)=NNc1nc(-c2ccccc2)c(C)s1 | 5.28 | 2.08 | 2.55 | – | – | – | – | – |
| CCCCC/C(C)=N\Nc1nc(-c2ccccc2)c(C)s1 | 6 | 1.64 | 3.69 | – | – | – | – | – |
| Cc1sc(NN=C2CCCCCC2)nc1-c1ccccc1 | 1.96 | 0.9 | 2.11 | – | – | – | – | – |
| CCCCC/C(C)=N\Nc1nc(-c2ccc3ccccc3c2)cs1 | 16 | 6.67 | 2.45 | – | – | – | – | – |
| CCCCCC/C(C)=N\Nc1nc(-c2ccccc2)c(C)s1 | 3.75 | 1.04 | 3.91 | – | – | – | – | – |
| Cc1sc(N/N=C/c2ccncc2)nc1-c1ccccc1 | 1.37 | 0.16 | 8.29 | – | – | – | – | – |
| Cc1sc(N/N=C2\CCC(C)C2)nc1-c1ccccc1 (configuration not stated) | 2.31 | 1.01 | 2.29 | – | – | – | – | – |

| Structure (SMILES) | IC50 [1] [µM] | Ratio IC50 (Homo sapiens) | IC50 [2] [µM] | inhibition at 100 µM [3] [%] | inhibition at 100 µM [4] [%] | inhibition (INH) [5] | IC50 ([1]; bti-tn-5b1-4) [µM] | IC50 ([2]; bti-tn-5b1-4) [µM] |
| --- | --- | --- | --- | --- | --- | --- | --- | --- |
| Cc1sc(N/N=C/c2ccco2)nc1-c1ccccc1 | 3.06 | 1.72 | 1.79 | – | – | – | – | – |
| Cc1sc(N/N=C2\CCCC2C)nc1-c1ccccc1 (configuration not stated) | 1.33 | 0.56 | 2.44 | – | – | – | – | – |
| C(=N\Nc1nc(-c2ccc3ccccc3c2)cs1)/c1cccc2ccccc12 | 22.9 | 1.41 | 16.4 | – | – | – | – | – |
| C/C(=N\Nc1nc(-c2ccccc2)c(C)s1)c1cc2ccccc2oc1=O | 3.02 | 0.33 | 9.18 | – | – | – | – | – |
| CCCC/C(CC)=N\Nc1nc(-c2ccc3ccccc3c2)cs1 | 3.76 | 1.28 | 2.93 | – | – | – | – | – |
| C/C(=N\Nc1nc(-c2ccccc2)c(C)s1)c1nccs1 | 0.28 | 0.043 | 6.52 | – | – | – | – | – |
| C/C(=N\Nc1nc(-c2ccc3ccccc3c2)cs1)c1cccs1 | 14.5 | 3.85 | 3.73 | – | – | – | – | – |
| Cc1sc(N/N=C/c2cccs2)nc1-c1ccccc1 | 3.05 | 0.9 | 3.38 | – | – | – | – | – |
| C/C(=N\Nc1nc(-c2ccccc2)c(C)s1)c1ccco1 | 2.1 | 1.25 | 1.68 | – | – | – | – | – |
| C(=N\Nc1nc(-c2ccc3ccccc3c2)cs1)/c1c[nH]c2ccccc12 | 5.99 | 2.56 | 2.34 | – | – | – | – | – |
| C/C(=N\Nc1nc(-c2ccc3ccccc3c2)cs1)c1cc2ccccc2oc1=O | 10.8 | 1.67 | 6.47 | – | – | – | – | – |
| Cc1sc(N/N=C/c2c[nH]c3ccccc23)nc1-c1ccccc1 | 1.4 | 0.45 | 3.12 | – | – | – | – | – |
| C/C(=N\Nc1nc(-c2ccccc2)c(C)s1)c1cccs1 | 2.34 | 0.9 | 2.67 | – | – | – | – | – |
| CC/C(C)=N\Nc1nc(-c2ccccc2)c(C)s1 | 1.53 | 1 | 1.55 | – | – | – | – | – |
| C/C(=N\Nc1nc(-c2ccccc2)c(C)s1)c1ccc2ccccc2c1 | – | – | – | 40 | 40 | – | – | – |
| CC(C)=NNc1nc(-c2ccc3ccccc3c2)cs1 | 3.55 | 2.27 | 1.56 | – | – | – | – | – |
